Experimental data taken from BindingDB's records for doi:10.1073/pnas.90.21.10365 (Merck Research Laboratories, 1993).

Molecular target: T1, Adenosine receptor A3 (Homo sapiens, UniProt P0DMS8)
T1 sequence (P0DMS8 whole entry): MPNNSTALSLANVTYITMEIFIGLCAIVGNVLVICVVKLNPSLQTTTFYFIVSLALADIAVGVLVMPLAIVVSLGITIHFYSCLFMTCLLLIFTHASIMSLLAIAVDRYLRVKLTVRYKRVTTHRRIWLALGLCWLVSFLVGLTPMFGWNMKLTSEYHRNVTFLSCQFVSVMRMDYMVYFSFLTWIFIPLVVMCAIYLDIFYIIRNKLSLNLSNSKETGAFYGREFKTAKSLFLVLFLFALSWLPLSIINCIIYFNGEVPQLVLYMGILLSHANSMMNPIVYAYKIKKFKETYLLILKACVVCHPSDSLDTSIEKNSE

Nc1ccc(CNc2ncnc3c2ncn3[C@@H]2O[C@H](CO)[C@@H](O)[C@H]2O)cc1I [IABA]
Ki: 10 nM
